Reference: ChEMBL document CHEMBL1127926, “Preparation and antitumor activity of [N-alkyl-Ala2]RA-VII, antitumor cyclic hexapeptide” (Bioorg Med Chem Lett, 1994)
≈ marks a conversion by molar mass, not a printed value.

Key:
KB = test: Cytotoxicity in human epidermoid carcinoma of the nasopharynx(KB) cells; format: functional, cell-based
P388 = test: Cytotoxicity in murine lymphocytic leukemia (P388) cells; format: functional, cell-based; settings: Mus musculus
Mus musculus [1] = test: Antitumor activity against P388 leukemia cells was determined in mice at a dose 6.25 mg/kg administered i.p. on days 1-5; format: functional; settings: route intraperitoneal
Mus musculus [2] = test: Antitumor activity against P388 leukemia cells was determined in mice at a dose 0.4 mg/kg administered i.p. on days 1-5; format: functional; settings: route intraperitoneal
Mus musculus [3] = test: Antitumor activity against P388 leukemia cells was determined in mice at a dose 1.6 mg/kg administered i.p. on days 1-5; format: functional; settings: route intraperitoneal
Mus musculus [4] = test: Antitumor activity against P388 leukemia cells was determined in mice at a dose 12.5 mg/kg administered i.p. on days 1-5; format: functional; settings: route intraperitoneal
Mus musculus [5] = test: Antitumor activity against P388 leukemia cells was determined in mice at a dose 0.8 mg/kg administered i.p. on days 1-5; format: functional; settings: route intraperitoneal
Mus musculus [6] = test: Antitumor activity against P388 leukemia cells was determined in mice at a dose 6.25 mg/kg administered i.p. on days 1-5; Toxic; format: functional, organism-based; set-up: dose 6.25 mg/kg
Mus musculus [7] = test: Antitumor activity against P388 leukemia cells was determined in mice at a dose 3.13 mg/kg administered i.p. on days 1-5; format: functional; settings: route intraperitoneal
Mus musculus [8] = test: Antitumor activity against P388 leukemia cells was determined in mice at a dose 25.0 mg/kg administered i.p. on days 1-5; format: functional; settings: route intraperitoneal

| SMILES | IC50 (KB) [µg/mL] | IC50 (P388) [µg/mL] | T/C (Mus musculus [1]) [%] | T/C (Mus musculus [2]) [%] | T/C (Mus musculus [3]) [%] | also measured |
| --- | --- | --- | --- | --- | --- | --- |
| COc1ccc(C[C@H]2C(=O)N[C@@H](C)C(=O)N(C)[C@H]3Cc4ccc(cc4)Oc4cc(ccc4OC)C[C@@H](C(=O)N[C@H](C)C(=O)N(C)[C@@H](C)C(=O)N2C)N(C)C3=O)cc1 | 0.0077 (≈ 0.00981 µM) | 0.0012 (≈ 0.00153 µM) | – | – | – | – |
| COc1ccc(C[C@H]2C(=O)N[C@@H](C)C(=O)N(C)[C@H]3Cc4ccc(cc4)Oc4cc(ccc4OC)C[C@@H](C(=O)N[C@H](C)C(=O)N(C/C=C/c4ccccc4)[C@@H](C)C(=O)N2C)N(C)C3=O)cc1 | 0.03 (≈ 0.0338 µM) | 0.0094 (≈ 0.0106 µM) | – | – | – | – |
| C/C=C/CN1C(=O)[C@@H](C)NC(=O)[C@@H]2Cc3ccc(OC)c(c3)Oc3ccc(cc3)C[C@@H](C(=O)N2C)N(C)C(=O)[C@H](C)NC(=O)[C@H](Cc2ccc(OC)cc2)N(C)C(=O)[C@@H]1C | 0.018 (≈ 0.0218 µM) | 0.0076 (≈ 0.00921 µM) | 155 | 112 | 127 | – |
| C=C(C)CN1C(=O)[C@@H](C)NC(=O)[C@@H]2Cc3ccc(OC)c(c3)Oc3ccc(cc3)C[C@@H](C(=O)N2C)N(C)C(=O)[C@H](C)NC(=O)[C@H](Cc2ccc(OC)cc2)N(C)C(=O)[C@@H]1C | 0.027 (≈ 0.0327 µM) | 0.009 (≈ 0.0109 µM) | – | – | – | – |
| COc1ccc(C[C@H]2C(=O)N[C@@H](C)C(=O)N(C)[C@H]3Cc4ccc(cc4)Oc4cc(ccc4OC)C[C@@H](C(=O)N[C@H](C)C(=O)N(CC=C(C)C)[C@@H](C)C(=O)N2C)N(C)C3=O)cc1 | 0.0064 (≈ 0.00763 µM) | 0.0058 (≈ 0.00691 µM) | 160 | 123 | 132 | T/C (Mus musculus [4]): 174% |
| CCCCCN1C(=O)[C@@H](C)NC(=O)[C@@H]2Cc3ccc(OC)c(c3)Oc3ccc(cc3)C[C@@H](C(=O)N2C)N(C)C(=O)[C@H](C)NC(=O)[C@H](Cc2ccc(OC)cc2)N(C)C(=O)[C@@H]1C | 0.063 (≈ 0.0749 µM) | 0.018 (≈ 0.0214 µM) | – | – | – | – |
| C=CCN1C(=O)[C@@H](C)NC(=O)[C@@H]2Cc3ccc(OC)c(c3)Oc3ccc(cc3)C[C@@H](C(=O)N2C)N(C)C(=O)[C@H](C)NC(=O)[C@H](Cc2ccc(OC)cc2)N(C)C(=O)[C@@H]1C | 0.013 (≈ 0.016 µM) | 0.015 (≈ 0.0185 µM) | – | – | – | – |
| CCCCN1C(=O)[C@@H](C)NC(=O)[C@@H]2Cc3ccc(OC)c(c3)Oc3ccc(cc3)C[C@@H](C(=O)N2C)N(C)C(=O)[C@H](C)NC(=O)[C@H](Cc2ccc(OC)cc2)N(C)C(=O)[C@@H]1C | 0.024 (≈ 0.029 µM) | 0.01 (≈ 0.0121 µM) | – | – | – | – |
| COc1ccc(C[C@H]2C(=O)N[C@@H](C)C(=O)N(C)[C@H]3Cc4ccc(cc4)Oc4cc(ccc4OC)C[C@@H](C(=O)N[C@H](C)C(=O)N[C@@H](C)C(=O)N2C)N(C)C3=O)cc1 | 0.0023 (≈ 0.00298 µM) | 0.0013 (≈ 0.00169 µM) | – | 144 | 152 | T/C (Mus musculus [5]): 144%; Activity (Mus musculus [6]): Toxic; T/C (Mus musculus [7]): 163% |
| CCN1C(=O)[C@@H](C)NC(=O)[C@@H]2Cc3ccc(OC)c(c3)Oc3ccc(cc3)C[C@@H](C(=O)N2C)N(C)C(=O)[C@H](C)NC(=O)[C@H](Cc2ccc(OC)cc2)N(C)C(=O)[C@@H]1C | 0.035 (≈ 0.0438 µM) | 0.035 (≈ 0.0438 µM) | – | – | – | – |
| CCCN1C(=O)[C@@H](C)NC(=O)[C@@H]2Cc3ccc(OC)c(c3)Oc3ccc(cc3)C[C@@H](C(=O)N2C)N(C)C(=O)[C@H](C)NC(=O)[C@H](Cc2ccc(OC)cc2)N(C)C(=O)[C@@H]1C | 0.0097 (≈ 0.0119 µM) | 0.0032 (≈ 0.00394 µM) | – | – | – | – |
| COc1ccc(C[C@H]2C(=O)N[C@@H](C)C(=O)N(C)[C@H]3Cc4ccc(cc4)Oc4cc(ccc4OC)C[C@@H](C(=O)N[C@H](C)C(=O)N(C/C=C(\C)CCC=C(C)C)[C@@H](C)C(=O)N2C)N(C)C3=O)cc1 | 0.062 (≈ 0.0683 µM) | 0.044 (≈ 0.0485 µM) | 148 | 119 | 131 | T/C (Mus musculus [8]): 164% |
| CC/C=C/CN1C(=O)[C@@H](C)NC(=O)[C@@H]2Cc3ccc(OC)c(c3)Oc3ccc(cc3)C[C@@H](C(=O)N2C)N(C)C(=O)[C@H](C)NC(=O)[C@H](Cc2ccc(OC)cc2)N(C)C(=O)[C@@H]1C | 0.022 (≈ 0.0262 µM) | 0.01 (≈ 0.0119 µM) | 155 | 113 | 125 | – |
